We go through 3 compounds from ChEMBL document CHEMBL1123367, “Furanose-pyranose isomerization of reduced pyrimidine and cyclic urea ribosides” (J Med Chem, 1986).

As usually defined, the Ki is the equilibrium dissociation constant of an inhibitor or competing ligand from its target.

The nature of data set [1]: Half-life of the initial pseudo-first-order isomerization at apparent pH 2.0 and 25 degree celsius. The following applies: read-out: T1/2 app (converted). It is filed as ADME.
A short description of data set [2]: Half-life of the initial pseudo-first-order isomerization at apparent pH 1.0 and 37 degree celsius. Format: ADME. Particulars: read-out: T1/2 app (converted).
A short description of data set [3]: Half-life of the initial pseudo-first-order isomerization at apparent pH 1.0 and 25 degree celsius. Format: ADME. The following applies: read-out: T1/2 app.
The nature of data set [4]: Half-life of the initial pseudo-first-order isomerization at apparent pH 2.8 and 37 degree celsius. It is filed as ADME. The following applies: read-out: T1/2 app (converted).
For another data set, the target named is Cytidine deaminase (Mus musculus, UniProt P56389). The experiment in a line: Compound was tested […] for its ability to inhibit mouse kidney cytidine deaminase (CDA).

Some results are limits rather than exact numbers.

Sequence of Cytidine deaminase (P56389 whole entry): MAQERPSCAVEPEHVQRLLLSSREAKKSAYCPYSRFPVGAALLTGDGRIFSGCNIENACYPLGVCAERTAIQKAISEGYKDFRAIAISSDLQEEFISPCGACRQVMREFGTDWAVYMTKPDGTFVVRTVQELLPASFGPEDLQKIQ

`O=C1NCCCN1[C@@H]1O[C@H](CO)[C@@H](O)[C@H]1O`: the half-life is 2.23 h in data set [1], 0.63 h in data set [2], below 0.2 h in data set [3] and 5.2 h in data set [4].
The compound `O=C1NCCCCN1[C@@H]1OC[C@@H](O)[C@@H](O)[C@H]1O` showed an inhibition constant Ki on Cytidine deaminase of 6.6 µM.
Same read-out and setting: with `O=C1NCCCN1C1OC[C@@H](O)[C@H](O)[C@@H]1O` (stereo partly specified) the figure was above 50 µM.
